According to patent publication US9120749B2, “Quinoline derivatives and MELK inhibitors containing the same” (ONCOTHERAPY SCIENCE, INC., priority 2010, dated 2015):
Counter-ions that a name gives are not always drawn.

What was measured:
[1] = test system: T47D cells; test: Cell-based assay: anti-proliferative activity, Cell Counting Kit-8, 72 hours (T47D); conditions: Homo sapiens, T47D, 72 h
Outline: (§1)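 T47D, A549 and BT-549 cells, with MELK-negative HT-1197 as control (MELK status checked by western blot), seeded at 2,000–3,000 cells/well. Growth measured by CCK-8 72 hours after inhibitor exposure; IC50 values calculated.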

[2] = test system: 22Rv1 cells; test: Cell-based assay: anti-proliferative activity, Cell Counting Kit-8, 72 hours (22Rv1); conditions: Homo sapiens
[3] = target: MELK (Homo sapiens, UniProt Q14680); test: Kinase assay: MELK activity, phosphorylation of FITC-labeled histone H3 peptide measured by IMAP fluorescence polarization; assay type: biochemical; conditions: MELK kinase assay, IMAP fluorescence polarization, 50 micro-M ATP; read-out: IC50 (μM) (kinase assay)
Outline: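 A FITC-labelled histone H3 peptide served as substrate, with compounds serially diluted to 1% DMSO final. Reactions were stopped with three volumes of IMAP progressive binding solution. After 0.5 h at room temperature, fluorescence polarization was read.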

[4] = test system: HT-1197 cells; test: Cell-based assay: anti-proliferative activity, Cell Counting Kit-8, 72 hours (HT-1197, negative control without MELK expression); conditions: Homo sapiens, HT1197, 72 h, HT1197 cells (negative control), 72 hours
Outline: as §1

[5] = test system: A549 cells; test: Cell-based assay: anti-proliferative activity, Cell Counting Kit-8, 72 hours (A549); conditions: Homo sapiens, A549, 72 h, 72 hours
Outline: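 A549 cells were seeded in 96-well plates and exposed to candidate inhibitors for 72 hours. Cell growth was then measured with Cell Counting Kit-8, and IC50 values were calculated from the resulting growth data.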

[6] = test system: DU4475 cells; test: Cell-based assay: anti-proliferative activity, Cell Counting Kit-8, 72 hours (DU4475); conditions: Homo sapiens, DU-4475

MELK, sequence (Q14680 whole entry, looked up): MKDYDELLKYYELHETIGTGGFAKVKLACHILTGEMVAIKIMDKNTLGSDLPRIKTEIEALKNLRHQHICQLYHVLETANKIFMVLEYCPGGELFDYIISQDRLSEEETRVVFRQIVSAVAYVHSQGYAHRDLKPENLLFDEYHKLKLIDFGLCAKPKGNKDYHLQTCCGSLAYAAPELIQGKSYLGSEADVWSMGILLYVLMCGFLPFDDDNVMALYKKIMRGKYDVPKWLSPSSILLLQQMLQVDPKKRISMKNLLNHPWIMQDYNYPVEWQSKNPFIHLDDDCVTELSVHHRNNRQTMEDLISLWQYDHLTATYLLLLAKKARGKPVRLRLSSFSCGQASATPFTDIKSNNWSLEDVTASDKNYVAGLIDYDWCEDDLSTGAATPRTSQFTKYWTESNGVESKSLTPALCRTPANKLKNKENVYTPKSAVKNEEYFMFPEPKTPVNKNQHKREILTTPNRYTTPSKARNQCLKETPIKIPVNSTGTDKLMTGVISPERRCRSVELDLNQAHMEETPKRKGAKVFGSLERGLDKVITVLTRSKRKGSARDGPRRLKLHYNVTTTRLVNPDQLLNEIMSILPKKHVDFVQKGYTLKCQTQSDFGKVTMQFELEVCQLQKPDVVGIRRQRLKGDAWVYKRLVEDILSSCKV

CC(=O)c1cnc2ccc(-c3ccc(O)cc3)cc2c1N[C@H]1CC[C@H](CN(C)C)CC1 [Example 935, 1-(4-(1R,4R)-4-((dimethylamino)methyl)cyclohexylamino)-6-(4-hydroxyphenyl)quinolin-3-yl) ethanone dihydrochloride]
IC50 [1]: 1.6 µM | IC50 [2]: 0.53 µM | IC50 [3]: 0.08 µM | IC50 [4]: 4.3 µM | IC50 [5]: 0.86 µM | IC50 [6]: 1.5 µM

COc1cc(-c2ccc3ncc(C(=O)C4CCCC4)c(N[C@H]4CC[C@H](CN(C)C)CC4)c3c2)cc(Cl)c1O [Example 916, (6-(3-chloro-4-hydroxy-5-methoxy-phenyl)-4-((1R,4R)-4-((dimethyl-amino)methyl)cyclohexyl)amino) quinolin-3-yl)(cyclopentyl) methanone hydrochloride]
IC50 [1]: 1.2 µM | IC50 [2]: 1.5 µM | IC50 [3]: 0.0048 µM | IC50 [4]: 3.1 µM | IC50 [5]: 1.1 µM | IC50 [6]: 1 µM

CC(=O)c1cnc2ccc(-c3cc(Cl)c(O)c(Cl)c3)cc2c1N[C@H]1CC[C@H](NC(=O)C2CCCN2C)CC1 (stereo partly drawn) [Example 875, N-(1R,4R)-4-((3-acetyl-6-(3,5-dichloro-4-hydroxyphenyl)quinolin-4-yl)amino)cyclohexyl)-1-methylpyrrolidine-2-carboxamide hydrochloride]
IC50 [1]: 0.14 µM | IC50 [2]: 0.29 µM | IC50 [3]: 0.0035 µM | IC50 [4]: 4.4 µM | IC50 [5]: 0.24 µM | IC50 [6]: 0.21 µM

CC(=O)c1cnc2ccc(-c3cc(Cl)c(O)c(Cl)c3)cc2c1N[C@H]1CC[C@H](C(=O)N(C)C)CC1 [Example 865, (1r,4r)-4-((3-acetyl-6-(3,5-dichloro-4-hydroxyphenyl)quinolin-4-yl)amino)-N,N-dimethylcyclohexanecarboxamide hydrochloride]
IC50 [1]: 0.38 µM | IC50 [2]: 1.5 µM | IC50 [3]: 0.0093 µM | IC50 [4]: 3.9 µM | IC50 [5]: 0.86 µM | IC50 [6]: 0.94 µM

CC(=O)c1cnc2ccc(-c3cc(F)c(O)c(Cl)c3)cc2c1N[C@H]1CC[C@H](NC(=O)C2CCCN2C)CC1 (stereo partly drawn) [Example 874, N-(1R,4R)-4-((3-acetyl-6-(3-chloro-5-fluoro-4-hydroxyphenyl)quinolin-4-yl)amino)cyclohexyl)-1-methylpyrrolidine-2-carboxamide hydrochloride]
IC50 [1]: 0.04 µM | IC50 [2]: 0.18 µM | IC50 [3]: 0.016 µM | IC50 [4]: 1 µM | IC50 [5]: 0.14 µM | IC50 [6]: 0.12 µM

CN1CCC(n2cc(Nc3c(S(C)(=O)=O)cnc4ccc(-c5cc(F)c(O)c(Cl)c5)cc34)cn2)CC1 [Example 900, 2-chloro-6-fluoro-4-(4-((1-(1-methyl-piperidin-4-yl)-1H-pyrazol-4-yl)amino)-3-(methylsulfonyl)quinolin-6-yl)phenol hydrochloride]
IC50 [1]: 1.6 µM | IC50 [2]: 3.1 µM | IC50 [3]: 0.0032 µM | IC50 [4]: 10 µM | IC50 [5]: 10 µM | IC50 [6]: 0.54 µM

CC(=O)c1cnc2cc(F)c(-c3cc(Cl)c(O)c(Cl)c3)cc2c1N[C@H]1CC[C@H](CN2CCCC2)CC1 [Example 923, 1-(6-(3,5-dichloro-4-hydroxyphenyl)-7-fluoro-4-((1R,4R)-4-(pyrrolidin-1-ylmethyl)cyclohexyl)amino)quinolin-3-yl)ethanone hydrochloride]
IC50 [1]: 0.63 µM | IC50 [2]: 0.29 µM | IC50 [3]: 0.007 µM | IC50 [4]: 2.5 µM | IC50 [5]: 0.39 µM | IC50 [6]: 0.2 µM

CC(=O)c1cnc2ccc(-c3ccc4[nH]ncc4c3)cc2c1N[C@H]1CC[C@H](CN(C)C)CC1 [Example 910, 1-(4-((1R,4R)-4-((dimethylamino)methyl)cyclohexyl)amino)-6-(1H-indazol-5-yl)quinolin-3-yl)ethanone hydrochloride]
IC50 [1]: 6 µM | IC50 [2]: 3.4 µM | IC50 [3]: 0.1 µM | IC50 [4]: 9.8 µM | IC50 [5]: 2.6 µM | IC50 [6]: 5.4 µM

CS(=O)(=O)c1cnc2ccc(-c3cc(F)c(O)c(Cl)c3)cc2c1Nc1ccc(N2CCCC(N)C2)nc1 (stereo not drawn) [Example 909, 4-(4-(6-(3-aminopiperidin-1-yl)pyridin-3-ylamino)-3-(methylsulfonyl)quinolin-6-yl)-2-chloro-6-fluorophenol]
IC50 [1]: 0.19 µM | IC50 [2]: 0.44 µM | IC50 [3]: 0.0016 µM | IC50 [4]: 10 µM | IC50 [5]: 2.8 µM | IC50 [6]: 0.042 µM

CN1CCC(n2cc(Nc3c(S(C)(=O)=O)cnc4ccc(-c5cc(Cl)c(O)c(Cl)c5)cc34)cn2)CC1 [Example 899, 2,6-dichloro-4-(4-((1-(1-methyl-piperidin-4-yl)-1H-pyrazol-4-yl)amino)-3-(methylsulfonyl)quinolin-6-yl)phenol hydrochloride]
IC50 [1]: 1.6 µM | IC50 [2]: 1.5 µM | IC50 [3]: 0.0017 µM | IC50 [4]: 10 µM | IC50 [5]: 4 µM | IC50 [6]: 0.26 µM

CC(=O)c1cnc2ccc(-c3ccc4nc[nH]c4c3)cc2c1Nc1ccc(N2CCN(C)CC2)nc1 [Example 901, 1-(6-(1H-benzo[d]imidazol-6-yl)-4-((6-(4-methylpiperazin-1-yl)pyridin-3-yl)amino)quinolin-3-yl)ethanone hydrochloride]
IC50 [1]: 1.2 µM | IC50 [2]: 2.1 µM | IC50 [3]: 0.1 µM | IC50 [4]: 9.1 µM | IC50 [5]: 2.3 µM | IC50 [6]: 9.5 µM

CC(=O)c1cnc2ccc(-c3cc(Cl)c(O)c(Cl)c3)cc2c1N[C@H]1CC[C@H](C(=O)NCCN(C)C)CC1 [Example 892, (1r,4r)-4-((3-acetyl-6-(3,5-dichloro-4-hydroxyphenyl)quinolin-4-yl)amino)-N-(2-(dimethylamino)ethyl)cyclo-hexanecarboxamide hydrochloride]
IC50 [1]: 0.59 µM | IC50 [2]: 1.1 µM | IC50 [3]: 0.0023 µM | IC50 [4]: 100 µM | IC50 [5]: 6.3 µM | IC50 [6]: 0.4 µM

CC(=O)c1cnc2cc(C)c(-c3cc(Cl)c(O)c(Cl)c3)cc2c1Nc1ccc(N2CCN(C)CC2)nc1 [Example 866, 1-(6-(3,5-dichloro-4-hydroxyphenyl)-7-methyl-4-((6-(4-methylpiperazin-1-yl)pyridin-3-yl)amino)quinolin-3-yl)ethanone hydrochloride]
IC50 [1]: 2.4 µM | IC50 [2]: 4.1 µM | IC50 [3]: 0.34 µM | IC50 [4]: 4.5 µM | IC50 [5]: 2.3 µM | IC50 [6]: 2.9 µM

CCC(=O)c1cnc2ccc(-c3cc(Cl)c(O)c(Cl)c3)cc2c1Nc1ccc(N2CCC(N(C)C)C2)nc1 (stereo not drawn) [Example 863, 1-(6-(3,5-dichloro-4-hydroxyphenyl)-4-((6-(3-(dimethylamino)pyrrolidin-1-yl)pyridin-3-yl)amino)quinolin-3-yl)propan-1-one]
IC50 [1]: 0.44 µM | IC50 [2]: 0.59 µM | IC50 [3]: 0.0039 µM | IC50 [4]: 14 µM | IC50 [5]: 0.5 µM | IC50 [6]: 0.31 µM

CN(C)CCOc1ccc(Nc2c(S(C)(=O)=O)cnc3ccc(-c4cc(Cl)c(O)c(Cl)c4)cc23)cn1 [Example 884, 2,6-dichloro-4-(4-((6-(2-(dimethylamino)ethoxy)pyridin-3-yl)amino)-3-(methylsulfonyl)quinolin-6-yl)phenol hydrochloride]
IC50 [1]: 0.91 µM | IC50 [2]: 4.1 µM | IC50 [3]: 0.0035 µM | IC50 [4]: 13 µM | IC50 [5]: 2.1 µM | IC50 [6]: 0.51 µM
